Data as given in patent US10875876B2, “Cyclized sulfamoylarylamide derivatives and the use thereof as medicaments for the treatment of hepatitis B” (priority 2015, dated 2020).
pEC50: −log10 of the molar value. Like-named read-outs stand apart in the source and are kept apart here.

Key:
HBV = experiment: anti HBV activity, HepG2.117 cell line, intracellular HBV DNA by realtime PCR; assay type: cell-based; conditions: HepG2.117 cell line (Tet-off), 3 days of treatment, intracellular HBV DNA quantified by realtime PCR, read-out: HBV-AVE-HepG2.117 EC50
Summary of the method: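 Readout was intracellular HBV DNA by real-time PCR (HBV-specific primers and probe) after 3 days of compound exposure. Serial dilutions were tested in duplicate on HepG2.117 cells, a stable inducible HBV producer in which replication is switched on when doxycycline is absent.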

[1] = Cytotoxicity in HepG2 cells, Resazurin assay; conditions: human, HepG2 cells, TOX-HepG2-4 d CC50 (μM), HepG2 cells incubated for 4 days, viability by Resazurin assay
[2] = Hepatitis B virus, HepG2.117, 72 h

Row | SMILES | pEC50 (HBV; [2]) | CC50 at 4 days [1] | melting point | pEC50 (HBV)
1 | Cn1cc2c(c1C(=O)Nc1ccc(F)c(F)c1)OCC(C)(Cc1ccncc1)NS2(=O)=O (stereo not drawn) [Compound 191, N-(3,4-difluorophenyl)-3,7-dimethyl-1,1-dioxo-3-(4-pyridylmethyl)-2,4-dihydropyrrolo[3,4-b][1,4,5]oxathiazepine-6-carboxamide] | 8.00 | > 25 µM | 276 °C | 
2 | Cn1ccnc1CC1(C)COc2c(cn(C)c2C(=O)Nc2ccc(F)c(F)c2)S(=O)(=O)N1 (stereo not drawn) [Compound 173, N-(3,4-difluorophenyl)-3,7-dimethyl-3-[(1-methylimidazol-2-yl)methyl]-1,1-dioxo-2,4-dihydropyrrolo[3,4-b][1,4,5]oxathiazepine-6-carboxamide] | 7.77 | > 25 µM | 297.1 °C | 
3 | Cn1cc2c(c1C(=O)Nc1ccc(F)c(F)c1)OCC(C)(c1ncco1)NS2(=O)=O (single isomer, unassigned) [Compound 160a, N-(3,4-difluorophenyl)-3,7-dimethyl-3-oxazol-2-yl-1,1-dioxo-2,4-dihydropyrrolo[3,4-b][1,4,5]oxathiazepine-6-carboxamide] |  | > 25 µM | 239.5 °C | 7.11
4 | C[C@H](O)[C@H]1C=Cc2c(cn(C)c2C(=O)Nc2ccc(F)c(C(F)F)c2)S(=O)(=O)N1 [Compound 96, (3R)—N-[3-(difluoromethyl)-4-fluoro-phenyl]-3-[(1S)-1-hydroxyethyl]-7-methyl-1,1-dioxo-2,3-dihydropyrrolo[3,4-f]thiazepine-6-carboxamide] | 8.30 | > 25 µM | 182.3 °C | 
5 | Cc1cccc(C2(C)COc3c(cn(C)c3C(=O)Nc3ccc(F)c(F)c3)S(=O)(=O)N2)n1 (single isomer, unassigned) [Compound 168a, N-(3,4-difluorophenyl)-3,7-dimethyl-3-(6-methyl-2-pyridyl)-1,1-dioxo-2,4-dihydropyrrolo[3,4-b][1,4,5]oxathiazepine-6-carboxamide] |  | > 25 µM | 221.9 °C | < 6.90
6 | Cn1cc2c(c1C(=O)Nc1ccc(F)c(F)c1)OCC(C)(Cc1ccnc(Cl)c1)NS2(=O)=O (stereo not drawn) [Compound 190, 3-[(2-chloro-4-pyridyl)methyl]-N-(3,4-difluorophenyl)-3,7-dimethyl-1,1-dioxo-2,4-dihydropyrrolo[3,4-b][1,4,5]oxathiazepine-6-carboxamide] | 8.22 | > 25 µM | 225 °C | 
7 | Cn1cc2c(c1C(=O)Nc1ccc(F)c(F)c1)OC[C@@](C)(c1ccccn1)NS2(=O)=O [Compound 126, (3R)—N-(3,4-difluorophenyl)-3,7-dimethyl-1,1-dioxo-3-(2-pyridyl)-2,4-dihydropyrrolo[3,4-b][1,4,5]oxathiazepine-6-carboxamide] | 7.21 | > 25 µM | 270.5 °C | 
8 | Cn1cc2c(c1C(=O)Nc1ccc(F)c(F)c1)OCC(C)(c1ccccc1)NS2(=O)=O (stereo not drawn) [Compound 125, N-(3,4-difluorophenyl)-3,7-dimethyl-1,1-dioxo-3-phenyl-2,4-dihydropyrrolo[3,4-b][1,4,5]oxathiazepine-6-carboxamide] | 8.15 | > 25 µM | 256.6 °C | 
9 | Cn1cc2c(c1C(=O)Nc1ccc(F)c(F)c1)OCC(C)(Cc1ccc(Br)nc1)NS2(=O)=O (stereo not drawn) [Compound 171, 3-[(6-bromo-3-pyridyl)methyl]-N-(3,4-difluorophenyl)-3,7-dimethyl-1,1-dioxo-2,4-dihydropyrrolo[3,4-b][1,4,5]oxathiazepine-6-carboxamide] | 8.10 | > 25 µM | 259.2 °C | 
10 | Cn1cc2c(c1C(=O)Nc1ccc(F)c(C(F)F)c1)OC[C@](C)(c1ccccn1)NS2(=O)=O [Compound 169, (3S)—N-[3-(difluoromethyl)-4-fluoro-phenyl]-3,7-dimethyl-1,1-dioxo-3-(2-pyridyl)-2,4-dihydropyrrolo[3,4-b][1,4,5]oxathiazepine-6-carboxamide] | 7.77 | > 25 µM | 208.8 °C | 
11 | C[C@H](O)[C@H]1CCc2c(cn(C)c2C(=O)Nc2ccc(F)c(C(F)F)c2F)S(=O)(=O)N1 [Compound 188, (3R)—N-[3-(difluoromethyl)-2,4-difluoro-phenyl]-3-[(1S)-1-hydroxyethyl]-7-methyl-1,1-dioxo-2,3,4,5-tetrahydropyrrolo[3,4-f]thiazepine-6-carboxamide] | 7.96 | > 25 µM | 277.1 °C | 
12 | C[C@H](O)[C@H]1CCc2c(cn(C)c2C(=O)Nc2ccc(F)c(Cl)c2)S(=O)(=O)N1 [Compound 193, (3R)—N-(3-chloro-4-fluoro-phenyl)-3-[(1S)-1-hydroxyethyl]-7-methyl-1,1-dioxo-2,3,4,5-tetrahydropyrrolo[3,4-f]thiazepine-6-carboxamide] | 8.22 | > 25 µM | 290.8 °C | 
13 | Cn1ccnc1CC1(C)COc2c(cn(C)c2C(=O)Nc2ccc(F)c(C(F)F)c2)S(=O)(=O)N1 (stereo not drawn) [Compound 187, N-[3-(difluoromethyl)-4-fluoro-phenyl]-3,7-dimethyl-3-[(1-methylimidazol-2-yl)methyl]-1,1-dioxo-2,4-dihydropyrrolo[3,4-b][1,4,5]oxathiazepine-6-carboxamide] | 8.52 | > 25 µM | 282.8 °C | 
14 | C[C@H](O)[C@H]1CCc2c(cn(C)c2C(=O)Nc2ccc(F)c(C(F)F)c2)S(=O)(=O)N1 [Compound 103, (3R)—N-[3-(difluoromethyl)-4-fluoro-phenyl]-3-[(1S)-1-hydroxyethyl]-7-methyl-1,1-dioxo-2,3,4,5-tetrahydropyrrolo[3,4-f]thiazepine-6-carboxamide] | 8.22 | > 25 µM | 274.7 °C | 
15 | Cn1cc2c(c1C(=O)Nc1ccc(F)c(F)c1)OCC(C)(Cc1cccnc1)NS2(=O)=O (racemic) [Compound 199, N-(3,4-difluorophenyl)-3,7-dimethyl-1,1-dioxo-3-(3-pyridylmethyl)-2,4-dihydropyrrolo[3,4-b][1,4,5]oxathiazepine-6-carboxamide] | 7.82 | > 25 µM | 268.3 °C | 
16 | Cn1cc2c(c1C(=O)Nc1ccc(F)c(F)c1)OC[C@@H](C(C)(C)F)NS2(=O)=O [Compound 121, (3S)—N-(3,4-difluorophenyl)-3-(1-fluoro-1-methyl-ethyl)-7-methyl-1,1-dioxo-3,4-dihydro-2H-pyrrolo[3,4-b][1,4,5]oxathiazepine-6-carboxamide] | 7.54 | > 25 µM | 239.8 °C | 
17 | C[C@H](O)[C@H]1C=Cc2c(cn(C)c2C(=O)Nc2cc(F)c(F)c(F)c2)S(=O)(=O)N1 [Compound 98, (3R)-3-[(1S)-1-hydroxyethyl]-7-methyl-1,1-dioxo-N-(3,4,5-trifluorophenyl)-2,3-dihydropyrrolo[3,4-f]thiazepine-6-carboxamide] | 8.10 | > 25 µM | 244 °C | 
18 | Cc1cccc(CC2(C)COc3c(cn(C)c3C(=O)Nc3ccc(F)c(F)c3)S(=O)(=O)N2)n1 (racemic) [Compound 172, N-(3,4-difluorophenyl)-3,7-dimethyl-3-[(6-methyl-2-pyridyl)methyl]-1,1-dioxo-2,4-dihydropyrrolo[3,4-b][1,4,5]oxathiazepine-6-carboxamide] | 7.13 | > 25 µM | 206 °C | 
19 | Cn1cc2c(c1C(=O)Nc1ccc(F)c(F)c1)OC[C@](C)(c1ccccn1)NS2(=O)=O [Compound 127, (3S)—N-(3,4-difluorophenyl)-3,7-dimethyl-1,1-dioxo-3-(2-pyridyl)-2,4-dihydropyrrolo[3,4-b][1,4,5]oxathiazepine-6-carboxamide] | 7.89 | > 25 µM | 270.8 °C | 
20 | Cn1cc2c(c1C(=O)Nc1ccc(F)c(Cl)c1)OC[C@H](C(C)(C)O)NS2(=O)=O [Compound 180, (3R)—N-(3-chloro-4-fluoro-phenyl)-3-(1-hydroxy-1-methyl-ethyl)-7-methyl-1,1-dioxo-3,4-dihydro-2H-pyrrolo[3,4-b][1,4,5]oxathiazepine-6-carboxamide] | 8.30 | > 25 µM | 234.1 °C | 
21 | Cn1cc2c(c1C(=O)Nc1ccc(F)c(C#N)c1)OC[C@H](C(C)(C)O)NS2(=O)=O [Compound 106, (3R)—N-(3-cyano-4-fluoro-phenyl)-3-(1-hydroxy-1-methyl-ethyl)-7-methyl-1,1-dioxo-3,4-dihydro-2H-pyrrolo[3,4-b][1,4,5]oxathiazepine-6-carboxamide] | 8.10 | > 25 µM | 260.1 °C | 
22 | Cn1cc2c(c1C(=O)Nc1ccc(F)c(C#N)c1)OC[C@@H](C(C)(C)O)NS2(=O)=O [Compound 107, (3S)—N-(3-cyano-4-fluoro-phenyl)-3-(1-hydroxy-1-methyl-ethyl)-7-methyl-1,1-dioxo-3,4-dihydro-2H-pyrrolo[3,4-b][1,4,5]oxathiazepine-6-carboxamide] | 7.10 | > 25 µM | 259.8 °C | 
23 | Cn1cc2c(c1C(=O)Nc1ccc(F)c(C(F)F)c1)OC[C@@H](C(C)(C)O)NS2(=O)=O [Compound 101, (3S)—N-[3-(difluoromethyl)-4-fluoro-phenyl]-3-(1-hydroxy-1-methyl-ethyl)-7-methyl-1,1-dioxo-3,4-dihydro-2H-pyrrolo[3,4-b][1,4,5]oxathiazepine-6-carboxamide] | 7.85 | > 25 µM | 214.4 °C | 
